Measurements: US7964638B2, “Skin cosmetic and wrinkle-reducing agent” (Kao Corporation, priority 2005, dated 2011)

Test: Normal safety test

**Q.** Which Normal safety test does the source give for O[C@@H]1CO[C@H]2[C@@H]1OC[C@@H]2O [isosorbide] here?
**A.** Its Normal safety test is “no problem occurred”.
